Target: T1, human mGlu5a receptor (Homo sapiens, UniProt P41594)
T1 construct: expressed in transfected cells
Test: Intracellular Ca2+ mobilization assay (mGlu5 PAM)
Format: cell-based
Conditions: for EC50: HEK-293 cells stably transfected with human mGlu5a, L-glutamate added at EC20 after 10-30 min pre-incubation with test compound, read-out: EC50 (nM) mGlu5PAM; for Emax: maximal response in % of the maximal stimulatory effect obtained with saturating concentrations of L-glutamate, read-out: Eff. (%)
Description: A monoclonal HEK-293 cell line stably transfected with a cDNA encoding for the human mGlu5a receptor was generated; for the work with mGlu5 Positive Allosteric Modulators (PAMs), a cell line with low receptor expression levels and low constitutive receptor activity was selected to allow the differentiation of agonistic versus PAM activity. Cells were cultured according to standard protocols (Freshney, 2000) in Dulbecco's Modified Eagle Medium with high glucose supplemented with 1 mM glutamine, 10% (vol/vol) heat-inactivated bovine calf serum, Penicillin/Streptomycin, 50 μg/ml hygromycin and 15 μg/ml blasticidin (all cell culture reagents and antibiotics from Invitrogen, Basel, Switzerland).
About 24 hrs before an experiment, 5×10^4 cells/well were seeded in poly-D-lysine coated, black/clear-bottomed 96-well plates. The cells were loaded with 2.5 μM Fluo-4AM in loading buffer (1×HBSS, 20 mM HEPES) for 1 hr at 37° C. and washed five times with loading buffer. The cells were transferred into a Functional Drug Screening System 7000 (Hamamatsu, Paris, France), and 11 half logarithmic serial dilutions of test compound at 37° C. were added and the cells were incubated for 10-30 min. with on-line recording of fluorescence. Following this pre-incubation step, the agonist L-glutamate was added to the cells at a concentration corresponding to EC20 (typically around 80 μM) with on-line recording of fluorescence; in order to account for day-to-day variations in the responsiveness of cells, the EC20 of glutamate was determined immediately ahead of each experiment by recording of a full dose-response curve of glutamate.
Responses were measured as peak increase in fluorescence minus basal (i.e. fluorescence without addition of L-glutamate), normalized to the maximal stimulatory effect obtained with saturating concentrations of L-glutamate. Graphs were plotted with the % maximal stimulatory using XLfit, a curve fitting program that iteratively plots the data using Levenburg Marquardt algorithm. The single site competition analysis equation used was y=A+((B−A)/(1+((x/C)D))), where y is the % maximal stimulatory effect, A is the minimum y, B is the maximum y, C is the EC50, x is the log 10 of the concentration of the competing compound and D is the slope of the curve (the Hill Coefficient). From these curves the EC50 (concentration at which half maximal stimulation was achieved), the Hill coefficient as well as the maximal response in % of the maximal stimulatory effect obtained with saturating concentrations of L-glutamate were calculated.
A depression of the signal observed after addition of the EC20 concentration of L-glutamate was indicative of an inhibitory activity of the test compound.

T1 sequence (P41594 21-1180 isoform P41594-2 limits assumed): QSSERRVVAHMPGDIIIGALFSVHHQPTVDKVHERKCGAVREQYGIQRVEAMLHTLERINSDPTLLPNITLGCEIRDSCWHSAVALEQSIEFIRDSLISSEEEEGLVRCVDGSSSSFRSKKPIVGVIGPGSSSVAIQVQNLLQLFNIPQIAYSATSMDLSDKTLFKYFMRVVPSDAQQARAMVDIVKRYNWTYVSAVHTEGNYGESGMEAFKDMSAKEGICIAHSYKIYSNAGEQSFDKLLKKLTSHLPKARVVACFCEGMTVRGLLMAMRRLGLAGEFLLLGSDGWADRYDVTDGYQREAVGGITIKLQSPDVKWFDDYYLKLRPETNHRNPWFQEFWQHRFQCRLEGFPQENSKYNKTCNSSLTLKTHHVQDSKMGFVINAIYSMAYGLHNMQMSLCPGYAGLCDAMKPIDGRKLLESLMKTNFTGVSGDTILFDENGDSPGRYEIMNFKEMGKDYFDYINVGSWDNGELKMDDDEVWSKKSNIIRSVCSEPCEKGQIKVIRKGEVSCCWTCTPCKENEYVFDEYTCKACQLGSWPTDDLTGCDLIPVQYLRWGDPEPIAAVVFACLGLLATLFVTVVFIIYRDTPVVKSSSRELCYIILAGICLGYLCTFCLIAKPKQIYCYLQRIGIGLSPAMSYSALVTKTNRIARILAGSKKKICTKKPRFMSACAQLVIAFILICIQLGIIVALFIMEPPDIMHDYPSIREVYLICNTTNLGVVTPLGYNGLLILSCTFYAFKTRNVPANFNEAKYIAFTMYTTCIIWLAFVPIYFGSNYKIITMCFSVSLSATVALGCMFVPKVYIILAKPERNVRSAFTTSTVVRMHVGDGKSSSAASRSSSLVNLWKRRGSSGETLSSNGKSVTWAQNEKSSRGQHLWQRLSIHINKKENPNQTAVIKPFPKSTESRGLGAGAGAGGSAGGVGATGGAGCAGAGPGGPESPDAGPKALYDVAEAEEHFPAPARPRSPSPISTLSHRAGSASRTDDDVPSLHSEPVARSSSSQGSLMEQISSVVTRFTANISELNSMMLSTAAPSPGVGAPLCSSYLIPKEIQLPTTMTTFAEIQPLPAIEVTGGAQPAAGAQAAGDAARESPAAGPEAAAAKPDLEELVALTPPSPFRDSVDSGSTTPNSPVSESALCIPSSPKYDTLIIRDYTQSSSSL

Row | EC50 | Emax | SMILES
1 | 34 nM | 59% | CC(C)(C)c1cc2ncc(C#Cc3cncc(Cl)c3)cn2n1 [Example 23, 2-tert-Butyl-6-(5-chloro-pyridin-3-ylethynyl)-pyrazolo[1,5-a]pyrimidine]
2 | 33 nM | 88% | CC(C)(C)c1cc2ncc(C#Cc3cccnc3)cn2n1 [Example 13, 2-tert-Butyl-6-pyridin-3-ylethynyl-pyrazolo[1,5-a]pyrimidine]
3 | 100 nM | 50% | Cc1cccc(C#Cc2cnc3cc(C(C)(C)C)nn3c2)c1 [Example 16, 2-tert-Butyl-6-m-tolylethynyl-pyrazolo[1,5-a]pyrimidine]
4 | 161 nM | 61% | CC(C)(C)c1cc2ncc(C#Cc3cncc(F)c3)cn2n1 [Example 29, 2-tert-Butyl-6-(5-fluoro-pyridin-3-ylethynyl)-pyrazolo[1,5-a]pyrimidine]
5 | 100 nM | 68% | Cc1ccc(C#Cc2cnc3cc(C(C)(C)C)nn3c2)cc1 [Example 19, 2-tert-Butyl-6-p-tolylethynyl-pyrazolo[1,5-a]pyrimidine]
6 | 28 nM | 54% | CC(C)(C)c1nc2ncc(C#Cc3ccc(F)c(F)c3)cn2n1 [Example 45, 2-tert-Butyl-6-(3,4-difluoro-phenylethynyl)-[1,2,4]triazolo[1,5-a]pyrimidine]
7 | 210 nM | 100% | C(#Cc1cnc2ncnn2c1)c1ccccc1 [Example 32, 6-Phenylethynyl-[1,2,4]triazolo[1,5-a]pyrimidine]
8 | 132 nM | 73% | Cc1ccc(C#Cc2cnc3cc(C)nn3c2)cc1 [Example 7, 2-Methyl-6-p-tolylethynyl-pyrazolo[1,5-a]pyrimidine]
9 | 50 nM | 101% | Fc1cccc(C#Cc2cnc3nc(N4CCOCC4)nn3c2)c1 [Example 49, 6-(3-Fluoro-phenylethynyl)-2-morpholin-4-yl-[1,2,4]triazolo[1,5-a]pyrimidine]
10 | 39 nM | 65% | CC(C)(C)c1cc2ncc(C#Cc3cc(F)ccc3F)cn2n1 [Example 37, 2-tert-Butyl-6-(2,5-difluoro-phenylethynyl)-pyrazolo[1,5-a]pyrimidine]
11 | 18 nM | 53% | CC(C)c1cc2ncc(C#Cc3ccccc3)cn2n1 [Example 38, 2-Isopropyl-6-phenylethynyl-pyrazolo[1,5-a]pyrimidine]
12 | 274 nM | 123% | C(#Cc1ccc2ncnn2c1)c1ccccc1 [Example 31, 6-Phenylethynyl-[1,2,4]triazolo[1,5-a]pyridine]

From patent US8933094B2, “Ethynyl compounds useful for treatment of CNS disorder” (Hoffmann-La Roche Inc., priority 2009, dated 2015)
